Test results published in patent US20190059368A1, “3,5-DIMETHOXYSTILBENE ANALOGS AND USES THEREOF” (The United States of America, as represented by the …, priority 2017, published 2019).
In brackets after ≈: the same amount, converted by molar mass.

Experiments:
[1] = test system: Cryptococcus neoformans ATCC 90113; assay: Antimicrobial microplate assay (modified CLSI); type: cell-based; conditions: Cr. neoformans
Method: All organisms were obtained from the American Type Culture Collection (ATCC; Manassas, Va., USA) and included the fungi Cryptococcus neoformans ATCC 90113 and the bacteria Staphylococcus aureus ATCC 29213, methicillin-resistant S. aureus ATCC 33591 (MRSA), and Mycobacterium intracellulare ATCC 23068. All organisms were tested using modified versions of the CLSI (formerly NCCLS) methods. For all organisms excluding My. intracellulare, optical density was used to monitor growth. Medium supplemented with 5% AlamarBlue® (BioSource International, Camarillo, Calif., USA) was utilized for growth detection of My. intracellulare. Samples (dissolved in DMSO) were serially diluted in 20% DMSO/saline and transferred (10 μl) in duplicate to 96-well flat-bottom microplates. Inocula were prepared by correcting the OD630 of microbe suspensions in Sabouraud Dextrose for Cr. neoformans, cation-adjusted Mueller-Hinton (Difco) at pH 7.3 for Staphylococcus spp., and 5% AlamarBlue® (BioSource International) in Middlebrook 7H9 broth with OADC enrichment, pH=7.0 for My. intracellulare, to afford an assay volume of 200 μl and final target inocula of: Cr. neoformans.: b 1.5×10^3, My. intracellulare: 2.0×10^6, and Staphylococcus spp.,: 5.0×10^5 CFU/ml. Final sample test concentrations were 1/100th the DMSO stock concentration. Drug controls (Ciprofloxacin (ICN Biomedicals, Ohio, USA) for bacteria and Amphotericin B (ICN Biomedicals) for fungi) were included in each assay. All organisms were read at either 530 nm using the Biotek Powerwave XS plate reader (Bio-Tek Instruments, VT) or 544ex1590em (My. intracellulare) using the Polarstar Galaxy Plate Reader (BMG LabTechnologies, Germany) before and after incubation: Staphylococcus spp. at 35° C. for 16-20 h, Cr. neoformans at 35° C. for 70-74 h, and My. intracellulare at 37° C. and 10% CO2 for 70-74 h. IC50 Values (concentrations that afford 50% inhibition relative to controls) werecalculated using XLfit 4.2 software (IDBS, Alameda, Calif.) using fit model 201.

C. fragariae = assay: Direct bioautography, antifungal; type: cell-based, Colletotrichum fragariae; conditions: 2 mM, 4 μl spotted (2 μl of the positive controls), average of 2 assays; for zone of inhibition at 2000 µM: Colletotrichum fragariae, read-out: zones of inhibition
Method: (§1) The analogs were tested for activity against Colletotrichum acutatum SIMMONDS, C. fragariae BROOKS, and C. gloeosporioides (PENZ) PENZ & SACC. in Penz., using a direct bioautography method as previously described by Tabanca et al. (Nat. Prod. Commun. 2008, 3, 1073) and Wang, et al. (J. Agric. Food Chem. 2013, 61, 4551). Technical grade commercial fungicide standards benomyl, cyprodinil, azoxystrobin, and captan were used at 0.9-1.61 μg/μl concentrations in 95% EtOH. After sample application, each TLC plate was subsequently sprayed with a spore suspension (3.0×10^5 spores/ml) of the fungus of interest and incubated in a moisture chamber for 4 days at 26° C. with a 12 hour photoperiod. Clear zones of fungal growth inhibition on the TLC plate indicated the presence of antifungal constituents in each extract or pure compound. The test compounds were prepared at 2 mM soln. in 95% EtOH, and 4 μl were spotted on the plates (2 μl of the positive controls).

Colletotrichum acutatum = assay: Direct bioautography, antifungal; type: cell-based; conditions: 2 mM, 4 μl spotted (2 μl of the positive controls), average of 2 assays; for zone of inhibition at 2000 µM: Colletotrichum acutatum, read-out: zones of inhibition
Method: as §1

C. gloeosporioides = assay: Direct bioautography, antifungal; type: cell-based, Colletotrichum gloeosporioides; conditions: 2 mM, 4 μl spotted (2 μl of the positive controls), average of 2 assays; for zone of inhibition at 2000 µM: Colletotrichum gloeosporioides, read-out: zones of inhibition
Method: as §1

[2] = test system: Meloidogyne incognita second-stage juveniles (J2); assay: M. incognita assay with previously hatched J2 immersed in test solutions; conditions: in vivo
Method: Two types of assays were used to investigate activity against M. incognita: i) eggs were immersed in solutions of the test compounds, and ii) second-stage juveniles (J2) previously hatched from eggs were immersed in the test solutions. These assays were conducted with procedures similar to those in Meyer, et al. (J. Nematol. 2006, 38, 333). M. incognita race 1 (originally isolated in 2013 from a field in Maryland) was grown in the greenhouse on pepper (Capsicum annuum L.) cultivar PA-136. Egg masses were hand-picked from plant roots, rinsed three times with sterile distilled H2O, and agitated in 0.6% NaClO for 3.5 minutes to separate and surface-sterilize eggs. The eggs were rinsed in sterile distilled H2O and stored overnight at 4° C. before use in egg immersion assays. To collect J2 for direct immersion into the test compounds, sterilized eggs were placed into a hatching chamber made with a Spectra/Mesh Nylon Filter (openings 25 μm in diameter; Spectrum Laboratories Inc., Rancho Dominguez, Calif., USA) in an autoclaved dish. J2 that passed through the filter within 3 days were used immediately for assays.
The assays were conducted in 96-well polystyrene plates. For the assays with immersed eggs, each well received approximately 50 eggs in 35 μl of sterile deionized water (SDW). For assays with previously hatched J2, a suspension of approximately 50 J2 in 35 μl of SDW was placed into each well. Each well then received 165 μl of treatment or control. The solvent used to dissolve the test chemicals was a 1:1:1 mixture referred to herein as CTD: equal parts Cremophor® EL Castor Oil (BASF Corporation, Vandalia, Ill., USA), Tween 80® (Sigma-Aldrich, St. Louis, Mo., USA), and DMSO (Sigma-Aldrich). A high and low rate of each compound was tested. After addition to the nematode suspensions in the wells, the low and high rates were 83.3 and 166.7 μg/ml of each test compound, respectively, dissolved in 0.5% and 1.0% of each of the three combined solvents. Controls were CTD equivalent to the low and high rates, and SDW. Because of the large number of treatments, the test compounds were divided into two groups for the egg immersion assays. The compounds tested in the egg immersion Assay 1 were 3, 6a, 6e, 6f, 6g, 6n, 7a, 7c, 7e, 7f, 7n, 11, 12, 16, and 17. The compounds tested in the egg immersion Assay 2 were 6b, 6h, 6i, 6j, 6k, 6l , 7b, 7g, 7h, 7i, 7j, 7k, 7l, and 7m (data not shown). Test compounds used for assays with previously hatched J2 were selected based on results with the egg assays. […]
Each polystyrene culture plate was covered with a plastic adhesive sheet (Excel Scientific, Inc., Victorville, Calif., USA) and incubated at 25° C. […] In egg immersion assays, total numbers of hatched J2, and numbers of mobile and immobile J2, were counted after 2 and 7 days incubation in the test compounds. In the first assay with previously hatched J2, the numbers of mobile and immobile J2 were counted after 1 and 2 days incubation, the treatments removed and replaced with a SDW rinse, and 2 days later the mobile vs. immobile J2 counted again. […]
Data from the M. incognita assays were analyzed with the statistical package JMP 11.2.0 (SAS Institute, Cary, N.C., USA). Differences among numbers of hatched J2 in each treatment, and among percentage of mobile J2 per treatment (number mobile J2/total J2×100), were determined by the ANOVA, and means were compared using Tukey Kramer's adjustment for multiple comparisons (P<0.05). […]

Row | Compound | zone of inhibition at 2000 µM (C. fragariae) [mm] | zone of inhibition at 2000 µM (Colletotrichum acutatum) [mm] | zone of inhibition at 2000 µM (C. gloeosporioides) [mm] | further results
1 | C[C@@H]1[C@H](O)[C@@H](C)/C=C/C=C/C=C/C=C/C=C/C=C/C=C/[C@H](O[C@@H]2O[C@H](C)[C@@H](O)[C@H](N)[C@@H]2O)C[C@@H]2O[C@](O)(C[C@@H](O)C[C@@H](O)[C@H](O)CC[C@@H](O)C[C@@H](O)CC(=O)O[C@H]1C)C[C@H](O)[C@H]2C(=O)O [Amphotericin B, reference compound] |  |  |  | IC50 [1]: 698 nM; MIC [1]: 1.353 µM (≈ 1.25 µg/mL)
2 | CO/C=C(/C(=O)OC)c1ccccc1Oc1cc(Oc2ccccc2C#N)ncn1 [Azoxystrobin, azoxystrobin] |  |  |  | zones of inhibition (C. fragariae): 17.5 mm; zones of inhibition (Colletotrichum acutatum): 15 mm; zones of inhibition (C. gloeosporioides): 17.5 mm
3 | CCCCNC(=O)n1c(NC(=O)OC)nc2ccccc21 [Benomyl, benomyl] | 20 | 17 | 20 | 
4 | O=C1C2CC=CCC2C(=O)N1SC(Cl)(Cl)Cl (stereo not drawn) [Captan, captan] | 18.5 | 11.5 | 18.5 | 
5 | COc1cccc(/C=C/c2cc(OC)c(C)c(OC)c2)c1 [Compound 6b, (E)-1,3-dimethoxy-5-(3-methoxystyryl)-2-methylbenzene] |  |  |  | effect on mobility of J2 previously hatched in water and immersed directly (in words) [2]: only 6g and 7k had an effect on J2 mobility
